Assay results taken from PubChem BioAssay (NCI).
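Results reflect a 48-hour exposure of cells in 96-well plates to compound at five concentrations. TGI: total growth inhibition.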

Experiments:
Experiment in all cases: NCI-60 cell line screen, 48 h
786-0 renal = test system: 786-0 renal
A498 renal = test system: A498 renal
A549 NSCLC = test system: A549 NSCLC
ACHN renal = test system: ACHN renal
BT-549 breast = test system: BT-549 breast
CAKI-1 renal = test system: CAKI-1 renal
CCRF-CEM leukemia = test system: CCRF-CEM leukemia
COLO 205 colon = test system: COLO 205 colon
DLD-1 colon = test system: DLD-1 colon
DMS 114 small cell lung = test system: DMS 114 small cell lung
DMS 273 small cell lung = test system: DMS 273 small cell lung
DU-145 prostate = test system: DU-145 prostate
EKVX NSCLC = test system: EKVX NSCLC
HCC-2998 colon = test system: HCC-2998 colon
HCT-116 colon = test system: HCT-116 colon
HCT-15 colon = test system: HCT-15 colon
HL-60(TB) leukemia = test system: HL-60(TB) leukemia
HOP-18 NSCLC = test system: HOP-18 NSCLC
HOP-62 NSCLC = test system: HOP-62 NSCLC
HOP-92 NSCLC = test system: HOP-92 NSCLC
HS 578T breast = test system: HS 578T breast
HT29 colon = test system: HT29 colon
IGROV1 ovarian = test system: IGROV1 ovarian
K-562 leukemia = test system: K-562 leukemia
KM12 colon = test system: KM12 colon
KM20L2 colon = test system: KM20L2 colon
LOX IMVI melanoma = test system: LOX IMVI melanoma
LXFL 529 NSCLC = test system: LXFL 529 NSCLC
M14 melanoma = test system: M14 melanoma
M19-MEL melanoma = test system: M19-MEL melanoma
MALME-3M melanoma = test system: MALME-3M melanoma
MCF7 breast = test system: MCF7 breast
MDA-MB-231 breast = test system: MDA-MB-231 breast
MDA-MB-435 = test system: MDA-MB-435
MDA-N = test system: MDA-N
MOLT-4 leukemia = test system: MOLT-4 leukemia
NCI-H226 lung = test system: NCI-H226 lung
NCI-H23 lung = test system: NCI-H23 lung
NCI-H460 lung = test system: NCI-H460 lung
NCI-H522 lung = test system: NCI-H522 lung
NCI/ADR-RES ovarian = test system: NCI/ADR-RES ovarian
OVCAR-3 ovarian = test system: OVCAR-3 ovarian
OVCAR-4 ovarian = test system: OVCAR-4 ovarian
OVCAR-5 ovarian = test system: OVCAR-5 ovarian
OVCAR-8 ovarian = test system: OVCAR-8 ovarian
PC-3 prostate = test system: PC-3 prostate
RPMI-8226 leukemia = test system: RPMI-8226 leukemia
RXF 393 renal = test system: RXF 393 renal
RXF-631 renal = test system: RXF-631 renal
SF-268 CNS = test system: SF-268 CNS
SF-295 CNS = test system: SF-295 CNS
SF-539 CNS = test system: SF-539 CNS
SK-MEL-2 melanoma = test system: SK-MEL-2 melanoma
SK-MEL-28 melanoma = test system: SK-MEL-28 melanoma
SK-MEL-5 melanoma = test system: SK-MEL-5 melanoma
SK-OV-3 ovarian = test system: SK-OV-3 ovarian
SN12C renal = test system: SN12C renal
SNB-19 CNS = test system: SNB-19 CNS
SNB-75 CNS = test system: SNB-75 CNS
SNB-78 CNS = test system: SNB-78 CNS
SR leukemia = test system: SR leukemia
SW-620 colon = test system: SW-620 colon
T-47D breast = test system: T-47D breast
TK-10 renal = test system: TK-10 renal
U251 CNS = test system: U251 CNS
UACC-257 melanoma = test system: UACC-257 melanoma
UACC-62 melanoma = test system: UACC-62 melanoma
UO-31 renal = test system: UO-31 renal
XF 498 CNS = test system: XF 498 CNS

Q: For `CCCN(CCCC(NC(C)=O)C(=O)NCc1ccccc1)C(=O)N(CCCl)N=O` (centres undefined), which TGI (786-0 renal) is on record?
A: 19.1 µM

Q: What about the TGI (A498 renal) of the same compound?
A: 31.1 µM

Q: What about the TGI (A549 NSCLC) of the same compound?
A: 68.7 µM

Q: What about the TGI (ACHN renal) of the same compound?
A: 37.5 µM

Q: What about the TGI (BT-549 breast) of the same compound?
A: 54.1 µM

Q: What about the TGI (CAKI-1 renal) of the same compound?
A: 62.4 µM

Q: What about the TGI (CCRF-CEM leukemia) of the same compound?
A: 76.8 µM

Q: And the TGI (COLO 205 colon)?
A: 42.6 µM

Q: And the TGI (DLD-1 colon)?
A: 43.1 µM

Q: What about the TGI (DMS 114 small cell lung) of the same compound?
A: 65.7 µM

Q: And the TGI (DMS 273 small cell lung)?
A: 24.6 µM

Q: What about the TGI (DU-145 prostate) of the same compound?
A: > 100 µM

Q: What about the TGI (EKVX NSCLC) of the same compound?
A: 59 µM

Q: And the TGI (HCC-2998 colon)?
A: 26.4 µM

Q: And the TGI (HCT-116 colon)?
A: 29 µM

Q: And the TGI (HCT-15 colon)?
A: 42.5 µM

Q: And the TGI (HL-60(TB) leukemia)?
A: 30.6 µM

Q: What about the TGI (HOP-18 NSCLC) of the same compound?
A: 64.7 µM

Q: What about the TGI (HOP-62 NSCLC) of the same compound?
A: 19.8 µM

Q: What about the TGI (HOP-92 NSCLC) of the same compound?
A: 46.6 µM

Q: And the TGI (HS 578T breast)?
A: > 100 µM

Q: And the TGI (HT29 colon)?
A: > 66.7 µM

Q: What about the TGI (IGROV1 ovarian) of the same compound?
A: 57.3 µM

Q: And the TGI (K-562 leukemia)?
A: 87.6 µM

Q: And the TGI (KM12 colon)?
A: 42.3 µM

Q: And the TGI (KM20L2 colon)?
A: 46.7 µM

Q: And the TGI (LOX IMVI melanoma)?
A: 31.5 µM

Q: And the TGI (LXFL 529 NSCLC)?
A: 34 µM

Q: What about the TGI (M14 melanoma) of the same compound?
A: 31.7 µM

Q: And the TGI (M19-MEL melanoma)?
A: 28.1 µM

Q: And the TGI (MALME-3M melanoma)?
A: 39.7 µM

Q: What about the TGI (MCF7 breast) of the same compound?
A: > 100 µM

Q: What about the TGI (MDA-MB-231 breast) of the same compound?
A: > 100 µM

Q: And the TGI (MDA-MB-435)?
A: > 100 µM

Q: And the TGI (MDA-N)?
A: > 100 µM

Q: What about the TGI (MOLT-4 leukemia) of the same compound?
A: 28 µM

Q: What about the TGI (NCI-H226 lung) of the same compound?
A: 40.1 µM

Q: What about the TGI (NCI-H23 lung) of the same compound?
A: 22.9 µM

Q: And the TGI (NCI-H460 lung)?
A: 23.6 µM

Q: And the TGI (NCI-H522 lung)?
A: 29.2 µM

Q: And the TGI (NCI/ADR-RES ovarian)?
A: > 100 µM

Q: And the TGI (OVCAR-3 ovarian)?
A: 53.3 µM

Q: And the TGI (OVCAR-4 ovarian)?
A: > 85 µM

Q: What about the TGI (OVCAR-5 ovarian) of the same compound?
A: 64.6 µM

Q: What about the TGI (OVCAR-8 ovarian) of the same compound?
A: 12.7 µM

Q: What about the TGI (PC-3 prostate) of the same compound?
A: > 100 µM

Q: And the TGI (RPMI-8226 leukemia)?
A: 69 µM

Q: And the TGI (RXF 393 renal)?
A: 35 µM

Q: And the TGI (RXF-631 renal)?
A: > 77.6 µM

Q: What about the TGI (SF-268 CNS) of the same compound?
A: 42.6 µM

Q: And the TGI (SF-295 CNS)?
A: 43.3 µM

Q: What about the TGI (SF-539 CNS) of the same compound?
A: 5.95 µM

Q: What about the TGI (SK-MEL-2 melanoma) of the same compound?
A: 43.9 µM

Q: And the TGI (SK-MEL-28 melanoma)?
A: 35.1 µM

Q: What about the TGI (SK-MEL-5 melanoma) of the same compound?
A: 37.8 µM

Q: And the TGI (SK-OV-3 ovarian)?
A: 63.1 µM

Q: What about the TGI (SN12C renal) of the same compound?
A: > 76.1 µM

Q: And the TGI (SNB-19 CNS)?
A: > 84.9 µM

Q: What about the TGI (SNB-75 CNS) of the same compound?
A: 39.8 µM

Q: And the TGI (SNB-78 CNS)?
A: 71 µM

Q: What about the TGI (SR leukemia) of the same compound?
A: 17.5 µM

Q: What about the TGI (SW-620 colon) of the same compound?
A: 49.7 µM

Q: What about the TGI (T-47D breast) of the same compound?
A: > 100 µM

Q: What about the TGI (TK-10 renal) of the same compound?
A: 83.4 µM

Q: What about the TGI (U251 CNS) of the same compound?
A: 20.1 µM

Q: And the TGI (UACC-257 melanoma)?
A: 47.6 µM

Q: And the TGI (UACC-62 melanoma)?
A: 12.6 µM

Q: And the TGI (UO-31 renal)?
A: 50 µM

Q: And the TGI (XF 498 CNS)?
A: 30.3 µM
